Reference: patent publication US20230286973A1, “PROTEIN SECRETION INHIBITORS” (KEZAR LIFE SCIENCES, priority 2020, published 2023)
Like-named read-outs stand apart in the source and are kept apart here.

What was measured:
[1] = tested on: PD1-ss+10aa/Gaussia Luciferase; experiment: Dox-Induced PD1-ss-Gluc Assay; assay type: cell-based; settings: 24 hr Dox induction, 293FRT/TO cells, read-out: 24 hr Dox Inducible PD1ssGluc 293FRT/TO: Mean IC50
Outline: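 Stable Flp-In 293 T-REx cells carried a doxycycline-inducible construct of Gaussia luciferase fused to the PD1 signal sequence plus 10 amino acids. Cells were plated the day before, then treated with compound dilutions in DMSO/media containing doxycycline at 37 °C, 5% CO2.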

[2] = tested on: TNFα-FL/Gaussia Luciferase; experiment: Dox Induced TNFα-FL-Gluc Assay; assay type: cell-based; settings: for IC50: 24 hr Dox induction, 293FRT/TO cells, read-out: 24 hr Dox Inducible TNFaFLGluc 293FRT/TO: Mean IC50; for 24 hr Dox Inducible TNFaFLGluc 293FRT/TO: TNF/PD1: ratio of TNFaFLGluc IC50 to PD1ssGluc IC50
Outline: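 Flp-In 293 T-REx cells stably carrying doxycycline-inducible full-length TNFα (aa 1-233) fused to Gaussia luciferase. Plated the day before, then treated with compound dilutions in doxycycline-containing medium at 37° C, 5% CO2.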

[3] = tested on: HER3-ss+4aa/Gaussia Luciferase; experiment: Dox-Induced Her3-ss-Gluc Assay; assay type: cell-based; settings: 24 hr Dox induction, 293FRT/TO cells, read-out: 24 hr Dox Inducible Her3(ss + 4)Gluc 293FRT/TO: Mean IC50
Outline: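 Stable Flp-In 293 T-REx cells carried a doxycycline-inducible HER3 signal sequence (+4 aa) fused to Gaussia luciferase. Cells were plated the day before the assay. Compound dilutions in DMSO/media containing doxycycline were then added, and plates were incubated at 37 °C, 5% CO2.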

[4] = tested on: IL-2-FL/Gaussia Luciferase; experiment: Dox Induced IL2-FL-Gluc Assay; assay type: cell-based; settings: for IC50: 24 hr Dox induction, 293FRT/TO cells, read-out: 24 hr Dox Inducible IL2FLGluc 293FRT/TO: Mean IC50; for 24 hr Dox Inducible IL2FLGluc 293FRT/TO: IL2/PD1: ratio of IL2FLGluc IC50 to PD1ssGluc IC50
Outline: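 Stable Flp-In 293 T-REx cells carrying doxycycline-inducible full-length IL-2 (aa 1-153) fused to Gaussia luciferase, plated the day before assay. Compound dilutions added in medium containing doxycycline, incubated at 37 °C, 5% CO2. Undefined stereocentres mean data refer to stereoisomer mixtures.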

[5] = tested on: multiple myeloma cell line NCI-H929; experiment: H929 Cell Viability Assay; assay type: cell-based, human; settings: Homo sapiens, NCI-H929, 48 h, NCI-H929 cells, Celltiter-Glo
Outline: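 NCI-H929 cells in RPMI 1640 with 10% FBS were treated with compound dilutions for 48 h at 37° C, 5% CO2. Viability was read by CellTiter-Glo luminescence. Undefined stereocentres denote stereoisomer mixtures.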

[6] = tested on: multiple myeloma cell line U266B1; experiment: U266 Cell Viability Assay; assay type: cell-based, human; settings: Homo sapiens, U-266, 48 h, U266B1 cells, Celltiter-Glo
Outline: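 U266B1 multiple myeloma cells in RPMI 1640/10% FBS were treated with compound dilutions for 48 h at 37 °C, 5% CO2. Viability was measured by CellTiter-Glo luminescence; compounds drawn without stereochemistry were tested as stereoisomer mixtures.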

[7] = Liver Microsome Stability Assay (rat); settings: rat liver microsomes, with NADPH, 1.0 uM compound
Experimental: (§1) Stability of a compound was assessed in the presence of liver microsomes from various sources—mouse, rat, monkey and human liver microsomes. 1.0 uM compound, 0.4% DMSO in 0.1 M Potassium Phosphate with 1.0 mg/mL liver microsomes, were incubated at 37° C. with or without 1 mM NADPH. The samples were quenched at 0, and 30 minutes.

[8] = Liver Microsome Stability Assay (mouse); settings: mouse liver microsomes, with NADPH, 1.0 uM compound
Experimental: as §1

[9] = Liver Microsome Stability Assay (human); settings: human liver microsomes, with NADPH, 1.0 uM compound
Experimental: as §1

[10] = Liver Microsome Stability Assay (monkey); settings: monkey liver microsomes, with NADPH, 1.0 uM compound
Experimental: as §1

[11] = '<=>' given where both are I.A.

SMILES | IC50 [1] [nM] | IC50 [2] [µM] | 24 hr Dox Inducible TNFaFLGluc 293FRT/TO: TNF/PD1 [2] | IC50 [3] [nM] | IC50 [4] [nM] | 24 hr Dox Inducible IL2FLGluc 293FRT/TO: IL2/PD1 [4] | EC50 [5] [µM] | EC50 [6] [µM] | Liver Microsome Stability (Multiple Species): Rat - % Remaining after 30 min w/NADPH [7] [%] | Liver Microsome Stability (Multiple Species): Mouse - % Remaining after 30 min w/NADPH [8] [%] | Liver Microsome Stability (Multiple Species): Human - % Remaining after 30 min w/NADPH [9] [%] | Liver Microsome Stability (Multiple Species): Monkey - % Remaining after 30 min w/NADPH [10] [%] | IC50 ([1]; mean) [nM] | IC50 ([2]; mean) [µM] | 24 hr Dox Inducible TNFaFLGluc 293FRT/TO: TNF/PD1 [2, 11] | IC50 ([3]; mean) [nM] | IC50 ([4]; mean) [nM] | 24 hr Dox Inducible IL2FLGluc 293FRT/TO: IL2/PD1 [4, 11]
O=C(Nc1nc([C@H]2CCCN2c2ccc(OC3CCN(C(=O)CO)CC3)cc2)cs1)c1cccn1Cc1ccnc(F)c1 [Compound A139, (R)-1-((2-fluoropyridin-4-yl)methyl)-N-(4-(1-(4-((1-(2-hydroxyacetyl)piperidin-4-yl)oxy)phenyl)pyrrolidin-2-yl)thiazol-2-yl)-1H-pyrrole-2-carboxamide] | 20.3 | 0.46 | 22.6 | 37.1 | 58.3 | 2.9 | 0.687 | > 25 | 41.9 | 26 | 30.1 | 10.7 |  |  |  |  |  | 
CN1c2ccccc2CCC1/C=C/c1csc(NC(=O)c2cccn2Cc2ccncc2)n1 (stereo not drawn) [Compound B8, (E)-N-(4-(2-(1-methyl-1,2,3,4-tetrahydroquinolin-2-yl)vinyl)thiazol-2-yl)-1-(pyridin-4-ylmethyl)-1H-pyrrole-2-carboxamide] | 260 | 3.53 | 13.6 | 610 | 875 | 3.4 | 24.2 | > 25 | 7.12 | 5.24 | 0.69 | 0.47 |  |  |  |  |  | 
CC(C#N)CCn1cccc1C(=O)Nc1nc([C@H]2CCCN2c2ccccc2)cs1 (stereo partly drawn) [Compound C89, 1-(3-cyanobutyl)-N-(4-((R)-1-phenylpyrrolidin-2-yl)thiazol-2-yl)-1H-pyrrole-2-carboxamide] |  |  |  |  |  |  | > 25 | > 25 | 5.16 | 16.5 | 24 | 0.31 | 1180 | 14.5 | 12.3 | 1790 | 2860 | 2.4
O=C(Nc1nc(/C=C/C2CN(c3ccccc3)CCO2)cs1)c1cccn1Cc1ccncc1 (stereo not drawn) [Compound B18, (E)-N-(4-(2-(4-phenylmorpholin-2-yl)vinyl)thiazol-2-yl)-1-(pyridin-4-ylmethyl)-1H-pyrrole-2-carboxamide] | 88.2 | 4.7 | 53.3 | 1100 | 1560 | 18 | > 25 | > 25 | 2.09 | 3.02 | 0.82 | 0.38 |  |  |  |  |  | 
Cn1cccc1C(=O)Nc1nc([C@H]2CCCN2c2ccccc2)cs1 [Compound C17, (R)-1-methyl-N-(4-(1-phenylpyrrolidin-2-yl)thiazol-2-yl)-1H-pyrrole-2-carboxamide] |  |  |  |  |  |  | > 25 | > 25 | 10.3 | 9.27 | 58.7 | 30.9 | 22300 | > 25 | >1.12 | > 25000 | 6750 | 0.3
Cc1cc(/C=C/c2csc(NC(=O)c3cccn3Cc3ccnc(F)c3)n2)no1 [Compound B88, (E)-1-((2-fluoropyridin-4-yl)methyl)-N-(4-(2-(5-methylisoxazol-3-yl)vinyl)thiazol-2-yl)-1H-pyrrole-2-carboxamide] | 625 | > 25 | >40.0 | > 25000 | > 25000 | >40 | > 25 | > 25 | 2.29 | 3.15 | 15.6 | 15.2 |  |  |  |  |  | 
CC(=O)N1CCC(n2cnc(/C=C/c3csc(NC(=O)c4cccn4Cc4ccnc(F)c4)n3)c2)CC1 [Compound B91, (E)-N-(4-(2-(1-(1-acetylpiperidin-4-yl)-1H-imidazol-4-yl)vinyl)thiazol-2-yl)-1-((2-fluoropyridin-4-yl)methyl)-1H-pyrrole-2-carboxamide] | 6050 | > 25 | >4.13 | > 25000 | > 25000 | >4.1 | > 25 | > 25 | 44.2 | 33.9 | 0.22 | 0.24 |  |  |  |  |  | 
O=C(Nc1nc(/C=C/c2cn(C3CCCCC3)cn2)cs1)c1cccn1Cc1ccncc1 [Compound B54, (E)-N-(4-(2-(1-cyclohexyl-1H-imidazol-4-yl)vinyl)thiazol-2-yl)-1-(pyridin-4-ylmethyl)-1H-pyrrole-2-carboxamide] | 6.85 | 9.42 | 1370 | 2950 | 5520 | 810 | 13.9 | > 23.6 | 4.57 | 4.16 | 0.4 | 2.69 |  |  |  |  |  | 
O=C(Nc1nc([C@H]2CCCN2c2ccc(C3(O)CCC3)cc2)cs1)c1cccn1Cc1ccnc(F)c1 [Compound A114, (R)-1-((2-fluoropyridin-4-yl)methyl)-N-(4-(1-(4-(1-hydroxycyclobutyl)phenyl)pyrrolidin-2-yl)thiazol-2-yl)-1H-pyrrole-2-carboxamide] | 36.1 | 0.551 | 15.2 | 87.8 | 54.9 | 1.5 | 1.02 | > 25 | 8.6 | 13 | 3.96 | 0.43 |  |  |  |  |  | 
